# Like-named read-outs stand apart in the source and are kept apart here.
# Key:
# pea seedlings = details: cited from earlier work
# dwarf morning glory = details: cited from earlier work
# [1] = test system: corn, green bean, cucumber, tomato, ryegrass and hosta seedlings; assay: Phytotoxicity of sprayed aqueous solvents, greenhouse tests; assay type: in vivo; details: sprayed 1 to 2% aqueous solutions; greenhouse tests with seedlings
# Experimental: (§1) The potential for phytotoxicity (plant injury) by spraying 1 to 2% aqueous solutions of ethyl lactate and solvent blends with ethyl lactate, as well as other ingredients such as glycerol and soy methyl esters was evaluated in field tests with apple trees and in greenhouse tests with corn, green bean, cucumber, tomato, ryegrass and hosta seedlings.
# apple trees = assay: Phytotoxicity of sprayed aqueous solvents, field tests; assay type: in vivo; details: sprayed 1 to 2% aqueous solutions; field tests with apple trees
# Experimental: as §1
# [2] = Solubility of GA in solvents and solvent blends; assay type: physicochemical
# Experimental: Gibberellic acid (GA) of 92% purity as a dry powder was used in these laboratory studies. The solvents and reagents were of reagent grade purity.
# Also, the GA was easier to dissolve in the solvent blends because they were not as viscous as the single solvents. Moreover, the solvent blends had high flash points. A flash point above 140° F. is very desirable because there are less regulatory restrictions on manufacturing, transportation, and storage.
compound,measurement,setting,value
gibberellin,effect on shoot length,pea seedlings; ten micrograms applied at 3 days old,nearly doubled shoot length
same,effect on shoot length,"pea seedlings; ten micrograms, 9 day old seedlings",barely affected
same,effect on flowering,dwarf morning glory; 2 to 20 micrograms,inhibits flowering
same,effect on flowering,dwarf morning glory; application of 0.02 micrograms,promotes flowering
CCOC(=O)C(C)O (centres unmarked) [ethyl lactate],phytotoxicity (plant injury),[1],no evidence of phytotoxicity
same,phytotoxicity (plant injury),apple trees,no evidence of phytotoxicity
"C=C1C[C@]23C[C@@]1(O)CC[C@H]2[C@@]12C=C[C@H](O)[C@@](C)(C(=O)O1)[C@H]2[C@@H]3C(=O)O [GA, Gibberellic acid]",solubility of GA in the solvent blends compared with ethyl lactate alone,[2]; 80:20 (w/w) ethyl lactate with propylene glycol or glycerol,twice as much
same,amount of GA dissolved in glycerol,"[2]; glycerol alone, solution very viscous and difficult to mix",a small amount
same,effect of mild heating on dissolution of GA in ethyl lactate,[2]; mild heating to 60° C.,did not increase the dissolution
same,amount of GA dissolved in propylene glycol,"[2]; propylene glycol alone, solution very viscous and difficult to mix",a small amount
same,solubility of GA in ethyl lactate alone,[2]; room temperature,approximately 2 % (w/w)

# Reference: patent US20060172890A1, “Liquid formulation of a plant growth regulator” (priority 2004, published 2006)
